# Results: US20260297081A1, “COMPOUNDS AND METHODS OF TREATING CANCERS” (Cullgen Inc., priority 2023, published 2026)
# Molecular target: CDK4 (Homo sapiens, UniProt P11802+Q16531)
# Assay: CDK4 percentage degradation in Calu-1 cells (Table 6)
# Format: cell-based
# Set-up: Cells that express cyclin D1-3 and CDK4/6 proteins were treated with heterobifunctional compounds; endogenous in cells; host or cells: Calu-1
# Settings: 16 hours; for inhibition at 0.04 µM: 40 nM; for inhibition at 0.2 µM: 200 nM
# Description: Calu-(cells were treated with heterobifunctional compounds at 40 nM or 200 nM for 16 hours A: protein percentage degradation […]; B: protein percentage degradation <80%, and ≥50%; C: protein percentage degradation <50%, and ≥30%; D; protein percentage degradation […]; -, data not available.
# Calu-1, T47D, MCF7, HCC1428 and other cells were cultured at 37° C. with 5% CO2 in RPMI 1640 or DMEM medium supplemented with 10% fetal bovine serum. Cells were authenticated using the short tandem repeat (STR) assays. Mycoplasma test results were negative. For palbo-resistant cell model, T47D cells were cultured long-term to resistance in the presence of 1 μM Palbociclib. Cells were deemed resistant when growing in the presence of Palbo at the same rate as parental cells.
# Cultured cells were washed with cold PBS once and lysed in cold RIPA buffer supplemented with protease inhibitors and phosphatase inhibitors (Beyotime Biotechnology). The solutions were then incubated at 4 ? for 30 min with gentle agitation to fully lysed cells. Cell lysates were centrifuged at 13,000 rpm for 10 min at 4 ? and pellets were discarded. Total protein concentrations in the lysates were determined following BCA assays (Beyotime Biotechnology). Cell lysates were mixed with Laemmli loading buffer and heated at 99° C. for 5 min. Proteins were resolved on SDS-PAGE and visualized using Western ECL Substrate kits on a ChemiDoc MP Imaging system (Bio-Rad). Protein bands were quantitated using the Image Lab software provided by Bio-Rad.
# Sequence of CDK4 (P11802 2-303 limits assumed): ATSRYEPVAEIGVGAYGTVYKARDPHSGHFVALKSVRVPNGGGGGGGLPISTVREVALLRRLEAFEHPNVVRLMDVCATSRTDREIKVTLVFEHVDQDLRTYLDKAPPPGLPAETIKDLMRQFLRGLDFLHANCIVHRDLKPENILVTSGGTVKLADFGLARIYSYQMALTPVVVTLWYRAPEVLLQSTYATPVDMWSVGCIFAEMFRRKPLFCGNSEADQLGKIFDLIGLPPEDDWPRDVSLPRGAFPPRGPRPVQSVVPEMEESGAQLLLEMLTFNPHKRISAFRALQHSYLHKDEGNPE
# Sequence of CDK4 (P24385 whole entry partner): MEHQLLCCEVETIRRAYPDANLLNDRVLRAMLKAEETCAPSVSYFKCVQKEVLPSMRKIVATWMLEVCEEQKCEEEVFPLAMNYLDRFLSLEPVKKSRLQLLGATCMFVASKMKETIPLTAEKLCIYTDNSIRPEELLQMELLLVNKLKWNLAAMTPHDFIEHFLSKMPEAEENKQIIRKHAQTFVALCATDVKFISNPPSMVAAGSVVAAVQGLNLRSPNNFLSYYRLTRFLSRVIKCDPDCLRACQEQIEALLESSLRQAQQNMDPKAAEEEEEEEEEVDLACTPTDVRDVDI
# Sequence of CDK4 (Q16531 2-1140 limits assumed): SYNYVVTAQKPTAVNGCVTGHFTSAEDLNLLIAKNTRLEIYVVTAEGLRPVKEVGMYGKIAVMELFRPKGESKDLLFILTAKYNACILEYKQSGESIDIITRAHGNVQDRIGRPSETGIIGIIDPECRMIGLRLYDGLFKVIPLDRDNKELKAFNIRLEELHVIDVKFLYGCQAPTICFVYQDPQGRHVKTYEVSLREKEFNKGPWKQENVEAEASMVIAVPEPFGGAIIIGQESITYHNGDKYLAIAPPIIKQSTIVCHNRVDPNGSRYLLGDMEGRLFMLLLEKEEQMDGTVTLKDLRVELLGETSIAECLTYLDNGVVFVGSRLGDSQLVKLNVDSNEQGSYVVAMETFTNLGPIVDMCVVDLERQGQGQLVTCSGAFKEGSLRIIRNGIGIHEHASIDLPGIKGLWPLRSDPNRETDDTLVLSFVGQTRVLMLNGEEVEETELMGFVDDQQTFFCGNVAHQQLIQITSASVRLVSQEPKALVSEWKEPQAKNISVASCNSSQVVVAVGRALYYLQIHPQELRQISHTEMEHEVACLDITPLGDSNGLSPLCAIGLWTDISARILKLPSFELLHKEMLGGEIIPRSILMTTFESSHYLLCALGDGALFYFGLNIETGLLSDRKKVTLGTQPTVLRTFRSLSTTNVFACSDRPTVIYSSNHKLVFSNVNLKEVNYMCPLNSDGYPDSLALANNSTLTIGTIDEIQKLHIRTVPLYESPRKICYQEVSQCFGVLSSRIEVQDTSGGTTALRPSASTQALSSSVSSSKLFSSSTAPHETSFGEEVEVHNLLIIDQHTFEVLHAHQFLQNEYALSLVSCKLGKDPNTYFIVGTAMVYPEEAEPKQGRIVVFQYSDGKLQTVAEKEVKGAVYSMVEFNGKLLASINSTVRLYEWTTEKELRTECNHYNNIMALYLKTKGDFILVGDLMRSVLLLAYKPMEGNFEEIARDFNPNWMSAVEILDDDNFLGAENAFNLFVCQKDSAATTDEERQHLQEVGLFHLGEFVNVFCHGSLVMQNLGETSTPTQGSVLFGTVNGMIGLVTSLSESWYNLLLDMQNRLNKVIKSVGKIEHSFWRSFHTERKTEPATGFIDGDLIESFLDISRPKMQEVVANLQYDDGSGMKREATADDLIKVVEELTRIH
SMILES,inhibition at 0.04 µM,inhibition at 0.2 µM
"CNc1ccc(C(=O)NC2CC(CN(C)C)C2)c(NCCCCCNC(=O)CN2CCN(c3ccc(Nc4ncc5c(C)c(C(C)=O)c(=O)n(C6CCCC6)c5n4)nc3)CC2)n1 (stereo not drawn) [CPD-65, 2-((5-(2-(4-(6-((6-Acetyl-8-cyclopentyl-5-methyl-7-oxo-7,8-dihydropyrido[2,3-d]pyrimidin-2-yl)amino)pyridin-3-yl)piperazin-1-yl)acetamido)pentyl)amino)-N-(3-((dimethylamino)methyl)cyclobutyl)-6-(methylamino)nicotinamide]",< 30%,< 30%
"CNc1ccc(C(=O)NC2CC3(C2)CC(N(C)C)C3)c(NCCCCCNC(=O)CN2CCN(c3ccc(Nc4ncc5c(C)c(C(C)=O)c(=O)n(C6CCCC6)c5n4)nc3)CC2)n1 (stereo not drawn) [CPD-67, 2-((5-(2-(4-(6-((6-Acetyl-8-cyclopentyl-5-methyl-7-oxo-7,8-dihydropyrido[2,3-d]pyrimidin-2-yl)amino)pyridin-3-yl)piperazin-1-yl)acetamido)pentyl)amino)-N-(6-(dimethylamino)spiro[3.3]heptan-2-yl)-6-(methylamino)nicotinamide]",< 30%,< 30%
"CC(=O)c1c(C)c2cnc(Nc3ccc(N4CCN(CC(=O)NCCCCCNc5nc(C(F)(F)F)ccc5C(=O)Nc5ccc(N(C)C)nn5)CC4)cn3)nc2n(C2CCCC2)c1=O [CPD-68, 2-((5-(2-(4-(6-((6-Acetyl-8-cyclopentyl-5-methyl-7-oxo-7,8-dihydropyrido[2,3-d]pyrimidin-2-yl)amino)pyridin-3-yl)piperazin-1-yl)acetamido)pentyl)amino)-N-(6-(dimethylamino)pyridazin-3-yl)-6-(trifluoromethyl)nicotinamide]",30 to 50%,50 to 80%
"CNc1ccc(C(=O)Nc2ccc3c(n2)CCC3)c(NC2CC3(CC(NC(=O)CN4CCN(c5ccc(Nc6ncc7c(C)c(C(C)=O)c(=O)n(C8CCCC8)c7n6)nc5)CC4)C3)C2)n1 (stereo not drawn) [CPD-69, 2-((6-(2-(4-(6-((6-Acetyl-8-cyclopentyl-5-methyl-7-oxo-7,8-dihydropyrido[2,3-d]pyrimidin-2-yl)amino)pyridin-3-yl)piperazin-1-yl)acetamido)spiro[3.3]heptan-2-yl)amino)-N-(6,7-dihydro-5H-cyclopenta[b]pyridin-2-yl)-6-(methylamino)nicotinamide]",30 to 50%,50 to 80%
"CNc1ccc(C(=O)Nc2cc(C)n(C)n2)c(NC2CC3(CC(NC(=O)CN4CCN(c5ccc(Nc6ncc7c(C)c(C(C)=O)c(=O)n(C8CCCC8)c7n6)nc5)CC4)C3)C2)n1 (stereo not drawn) [CPD-70, 2-((6-(2-(4-(6-((6-Acetyl-8-cyclopentyl-5-methyl-7-oxo-7,8-dihydropyrido[2,3-d]pyrimidin-2-yl)amino)pyridin-3-yl)piperazin-1-yl)acetamido)spiro[3.3]heptan-2-yl)amino)-N-(1,5-dimethyl-1H-pyrazol-3-yl)-6-(methylamino)nicotinamide]",50 to 80%,50 to 80%
"CNc1ccc(C(=O)N(C)c2ccc(N(C)C)nn2)c(NCCCCCNC(=O)CN2CCN(c3ccc(Nc4ncc5c(C)c(C(C)=O)c(=O)n(C6CCCC6)c5n4)nc3)CC2)n1 [CPD-71, 2-((5-(2-(4-(6-((6-acetyl-8-cyclopentyl-5-methyl-7-oxo-7,8-dihydropyrido[2,3-d]pyrimidin-2-yl)amino)pyridin-3-yl)piperazin-1-yl)acetamido)pentyl)amino)-N-(6-(dimethylamino)pyridazin-3-yl)-N-methyl-6-(methylamino)nicotinamide]",< 30%,< 30%

# The remaining lines, values ahead:
inhibition at 0.04 µM,inhibition at 0.2 µM,SMILES
50 to 80%,> 80%,"CNc1ccc(C(=O)Nc2cccc(C3CC3)n2)c(NC2CC3(CC(NC(=O)CN4CCN(c5ccc(Nc6ncc7c(C)c(C(C)=O)c(=O)n(C8CCCC8)c7n6)nc5)CC4)C3)C2)n1 (stereo not drawn) [CPD-72, 2-((6-(2-(4-(6-((6-Acetyl-8-cyclopentyl-5-methyl-7-oxo-7,8-dihydropyrido[2,3-d]pyrimidin-2-yl)amino)pyridin-3-yl)piperazin-1-yl)acetamido)spiro[3.3]heptan-2-yl)amino)-N-(6-cyclopropylpyridin-2-yl)-6-(methylamino)nicotinamide]"
< 30%,< 30%,"CNc1ccc(C(=O)Nc2ccc(C3CC3)nc2)c(NC2CC3(CC(NC(=O)CN4CCN(c5ccc(Nc6ncc7c(C)c(C(C)=O)c(=O)n(C8CCCC8)c7n6)nc5)CC4)C3)C2)n1 (stereo not drawn) [CPD-74, 2-((6-(2-(4-(6-((6-Acetyl-8-cyclopentyl-5-methyl-7-oxo-7,8-dihydropyrido[2,3-d]pyrimidin-2-yl)amino)pyridin-3-yl)piperazin-1-yl)acetamido)spiro[3.3]heptan-2-yl)amino)-N-(6-cyclopropylpyridin-3-yl)-6-(methylamino)nicotinamide]"
< 30%,30 to 50%,"CNc1ccc(C(=O)Nc2cccc(C(C)C)n2)c(NC2CC3(CC(NC(=O)CN4CCN(c5ccc(Nc6ncc7c(C)c(C(C)=O)c(=O)n(C8CCCC8)c7n6)nc5)CC4)C3)C2)n1 (stereo not drawn) [CPD-76, 2-((6-(2-(4-(6-((6-Acetyl-8-cyclopentyl-5-methyl-7-oxo-7,8-dihydropyrido[2,3-d]pyrimidin-2-yl)amino)pyridin-3-yl)piperazin-1-yl)acetamido)spiro[3.3]heptan-2-yl)amino)-N-(6-isopropylpyridin-2-yl)-6-(methylamino)nicotinamide]"
< 30%,< 30%,"CNc1ccc(C(=O)Nc2ccc(=O)[nH]n2)c(NCCCCCNC(=O)CN2CCN(c3ccc(Nc4ncc5c(C)c(C(C)=O)c(=O)n(C6CCCC6)c5n4)nc3)CC2)n1 [CPD-77, 2-((5-(2-(4-(6-((6-Acetyl-8-cyclopentyl-5-methyl-7-oxo-7,8-dihydropyrido[2,3-d]pyrimidin-2-yl)amino)pyridin-3-yl)piperazin-1-yl)acetamido)pentyl)amino)-6-(methylamino)-N-(6-oxo-1,6-dihydropyridazin-3-yl)nicotinamide]"
50 to 80%,50 to 80%,"CNc1ccc(C(=O)Nc2ccc(N(C)C)nn2)c(NC2CC3(CC(NCC(=O)N4CCN(c5ccc(Nc6ncc7c(C)c(C(C)=O)c(=O)n(C8CCCC8)c7n6)nc5)CC4)C3)C2)n1 (stereo not drawn) [CPD-78, 2-((6-((2-(4-(6-((6-Acetyl-8-cyclopentyl-5-methyl-7-oxo-7,8-dihydropyrido[2,3-d]pyrimidin-2-yl)amino)pyridin-3-yl)piperazin-1-yl)-2-oxoethyl)amino)spiro[3.3]heptan-2-yl)amino)-N-(6-(dimethylamino)pyridazin-3-yl)-6-(methylamino)nicotinamide]"
30 to 50%,30 to 50%,"CNc1ccc(C(=O)Nc2ccc(N(C)C)nn2)c(NC2CC3(CC(CCC(=O)N4CCN(c5ccc(Nc6ncc7c(C)c(C(C)=O)c(=O)n(C8CCCC8)c7n6)nc5)CC4)C3)C2)n1 (stereo not drawn) [CPD-82, 2-((6-(3-(4-(6-((6-Acetyl-8-cyclopentyl-5-methyl-7-oxo-7,8-dihydropyrido[2,3-d]pyrimidin-2-yl)amino)pyridin-3-yl)piperazin-1-yl)-3-oxopropyl)spiro[3.3]heptan-2-yl)amino)-N-(6-(dimethylamino)pyridazin-3-yl)-6-(methylamino)nicotinamide]"
